The values that follow come from patent publication US20090004185A1, “AMINO-SUBSTITUTED QUINAZOLINE DERIVATIVES AS INHIBITORS OF BETA-CATENIN/TCF-4 PATHWAY AND CANCER TREATMENT AGENTS” (WYETH, priority 2007, published 2009).

The subject of one assay is SV40-Luc. The experiment in a line: SV40-Luc control luciferase reporter assay, SV 5A8 cell line (SV40-Luc and SV40-R-Luc), control for non-specific inhibitors. In kind it is cell-based, human. To be noted: SV 5A8 cells derived from SW480, 24 hours of incubation with compound, ratio Firefly/Renilla luciferase. The gist of the method:
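Cells were plated and, 20-24 hours later, treated with titrated compound (0.316% DMSO final). After 24 hours they were lysed or given Dual-Glo reagent, and firefly then Renilla luminescence was measured. IC50s came from firefly/Renilla ratios as % of control.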
In general terms: In a reporter assay the amount or activity of a reporter protein is the signal.

The next assay deals with β-catenin/Tcf-4. The experiment in a line: cells. Type of assay: cell-based. To be noted: 24 hours of incubation with compound, ratio Firefly/Renilla luciferase. The gist of the method: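 SW480-derived lines with integrated reporters (Tcf-4-driven firefly luciferase; SV40 firefly as specificity control; SV40 Renilla for cell number/toxicity), treated 24 hours with titrated compounds, final 0.316% DMSO. Dual-luciferase read-out; firefly/Renilla ratio as % of control, duplicate plates, IC50 (nM) from curve fit.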

[1] abbreviates: Homo sapiens, SW480, 24 h, Tcf 33.13 cells derived from SW480.
The mark [2] stands for this setting: Homo sapiens, Tcf22C11, 24 h, Tcf 22C11 cells derived from SW480.
[3] abbreviates: Tcf 22C11 cells derived from SW480.
Where [4] appears, read: Tcf 33.13 cells derived from SW480.

The structures appear in SMILES notation.

The IC50 is the midpoint of a concentration-inhibition curve. Consider `CCN(CC)c1nc(NCc2ccc(NC(=O)C3CCN(Cc4ccc(F)cc4)CC3)cc2)c2cc(C(F)(F)F)ccc2n1` [Example 158, N-[4-({[2-(diethylamino)-6-(trifluoromethyl)quinazolin-4-yl]amino}methyl)phenyl]-1-(4-fluorobenzyl)piperidine-4-carboxamide], for which the IC50 in the assay with SV40-Luc (Homo sapiens, SV5A8, 24 h) is more than 8210 nM; in the assay on β-catenin/Tcf-4 (setting [1]) it was 3850 nM; in the assay on β-catenin/Tcf-4 (setting [2]), more than 4110 nM.
For `O=C(Nc1ccc(CNc2nc(NC3CCC3)nc3ccc(C(F)(F)F)cc23)cc1)C1CCN(Cc2ccc(F)cc2)CC1` [Example 159, N-[4-({[2-(cyclobutylamino)-6-(trifluoromethyl)quinazolin-4-yl]amino}methyl)phenyl]-1-(4-fluorobenzyl)piperidine-4-carboxamide] the same measures were more than 8240 nM, more than 8240 nM and more than 8240 nM.
As for `CNc1nc(NCc2ccc(NC(=O)C3CCN(Cc4ccc(F)cc4)CC3)cc2)c2cc(C(F)(F)F)ccc2n1` [Example 160], the figures for the IC50 with SV40-Luc, in the assay on β-catenin/Tcf-4 (setting [3]) and in the assay on β-catenin/Tcf-4 (setting [4]) were more than 4410 nM, 1450 nM and more than 2210 nM, respectively.
Turning to `CN(C)c1nc(NCc2ccc(NC(=O)c3ccc(Cl)cc3)cc2)c2cc(C(F)(F)F)ccc2n1` [Example 161, 4-chloro-N-[4-({[2-(dimethylamino)-6-(trifluoromethyl)quinazolin-4-yl]amino}methyl)phenyl]benzamide], the half-maximal inhibitory concentration (IC50) with SV40-Luc (Homo sapiens, SV5A8, 24 h) is more than 10000 nM; in the assay on β-catenin/Tcf-4 (setting [1]), 1520 nM; in the assay on β-catenin/Tcf-4 (setting [2]), 1710 nM.
Consider `O=C(Nc1ccc(CNc2nc(N3CCC3)nc3ccc(C(F)(F)F)cc23)cc1)c1ccc(Cl)cc1` [Example 162, N-[4-({[2-azetidin-1-yl-6-(trifluoromethyl)quinazolin-4-yl]amino}methyl)phenyl]-4-chlorobenzamide], for which the half-maximal inhibitory concentration (IC50) with SV40-Luc (Homo sapiens, SV5A8, 24 h) is more than 9770 nM; with β-catenin/Tcf-4 (setting [1]) it was 2230 nM; in the assay on β-catenin/Tcf-4 (setting [2]), 3580 nM.
As for `O=C(Nc1ccc(CNc2nc(N3CCCC3)nc3ccc(C(F)(F)F)cc23)cc1)c1ccc(Cl)cc1` [Example 163], the IC50 in the assay on SV40-Luc was more than 9510 nM; in the assay with β-catenin/Tcf-4 (setting [3]), 6990 nM; in the assay on β-catenin/Tcf-4 (setting [4]), 6550 nM.
With `O=C(Nc1ccc(CNc2nc(N3CCN(c4ncccn4)CC3)nc3ccc(C(F)(F)F)cc23)cc1)c1ccc(Cl)cc1` [Example 164, 4-chloro-N-[4-({[2-(4-pyrimidin-2-ylpiperazin-1-yl)-6-(trifluoromethyl)quinazolin-4-yl]amino}methyl)phenyl]benzamide], the IC50 is more than 8080 nM with SV40-Luc (Homo sapiens, SV5A8, 24 h); 4310 nM in the assay with β-catenin/Tcf-4 (setting [1]); 5190 nM with β-catenin/Tcf-4 (setting [2]).
For `CCN(CC)c1nc(NCc2ccc(NC(=O)c3ccc(Cl)cc3)cc2)c2cc(C(F)(F)F)ccc2n1` [Example 165, 4-chloro-N-[4-({[2-(diethylamino)-6-(trifluoromethyl)quinazolin-4-yl]amino}methyl)phenyl]benzamide] the same measures were more than 9470 nM, 5430 nM and 9640 nM.
For the compound `O=C(Nc1ccc(CNc2nc(NC3CCC3)nc3ccc(C(F)(F)F)cc23)cc1)c1ccc(Cl)cc1` [Example 166, 4-chloro-N-[4-({[2-(cyclobutylamino)-6-(trifluoromethyl)quinazolin-4-yl]amino}methyl)phenyl]benzamide], the IC50 with SV40-Luc (Homo sapiens, SV5A8, 24 h) is more than 9510 nM; with β-catenin/Tcf-4 (setting [1]), more than 9510 nM; with β-catenin/Tcf-4 (setting [2]) it was more than 9510 nM.
Turning to `CNc1nc(NCc2ccc(NC(=O)c3ccc(Cl)cc3)cc2)c2cc(C(F)(F)F)ccc2n1` [Example 167, 4-chloro-N-[4-({[2-(methylamino)-6-(trifluoromethyl)quinazolin-4-yl]amino}methyl)phenyl]benzamide], the IC50 in the assay on SV40-Luc (Homo sapiens, SV5A8, 24 h) was more than 5140 nM; in the assay on β-catenin/Tcf-4 (setting [1]), 751 nM; with β-catenin/Tcf-4 (setting [2]), 919 nM.
For `O=C(Nc1ccc(CNc2nc(NCc3ccco3)nc3ccc(C(F)(F)F)cc23)cc1)c1ccc(Cl)cc1` [Example 168, 4-chloro-N-[4-({[2-[(2-furylmethyl)amino]-6-(trifluoromethyl)quinazolin-4-yl]amino}methyl)phenyl]benzamide] the same measures were more than 9060 nM, 1280 nM and 2810 nM.
`CN(C)c1ccc(-c2ccc3nc(N(C)C)nc(NCc4ccc(NC(=O)c5ccc(F)cc5)cc4)c3c2)nc1` [Example 169]: the values for the IC50 in the assay on SV40-Luc, in the assay on β-catenin/Tcf-4 (setting [3]) and in the assay on β-catenin/Tcf-4 (setting [4]) were more than 2330 nM, 229 nM and 453 nM, respectively.
The like results for `CN(C)c1cccc(-c2ccc3nc(N(C)C)nc(NCc4ccc(C(=O)Nc5ccc(F)cc5)cc4)c3c2)c1` [Example 170] were, in that order, more than 2340 nM, 692 nM and 806 nM.
For `CN(C)c1nc(NCc2ccc(NC(=O)c3ccc(F)cc3)cc2)c2cc(/C=C\c3ccccc3)ccc2n1` [Example 171] the same measures were more than 19300 nM, 2940 nM and 4280 nM.
`C=Cc1cccc(-c2ccc3nc(N(C)C)nc(NCc4ccc(C(=O)Nc5ccc(F)cc5)cc4)c3c2)c1` [Example 172]: the IC50 in the assay with SV40-Luc is more than 2830 nM; in the assay with β-catenin/Tcf-4 (setting [3]) it was 397 nM; with β-catenin/Tcf-4 (setting [4]) it was 308 nM.
For `CN(C)c1nc(NCc2ccc(C(=O)Nc3ccc(F)cc3)cc2)c2cc(-c3ccc(/C=C/c4ccccc4)cc3)ccc2n1` [Example 173] the same measures were more than 18000 nM, more than 4510 nM and 4480 nM.
The like results for `C/C=C/c1ccc2nc(N(C)C)nc(NCc3ccc(C(=O)Nc4ccc(F)cc4)cc3)c2c1` [Example 174, E-4-((2-dimethylamino)-6-(prop-1-enyl)quinazolin-4-ylamino)methyl-N-(4-fluorophenyl)benzamide] were, in that order, more than 5080 nM, 436 nM and 359 nM.
The like results for `CCCC/C=C/c1ccc2nc(N(C)C)nc(NCc3ccc(C(=O)Nc4ccc(F)cc4)cc3)c2c1` [Example 175, E-(4-((2-dimethylamino)-6-(hex-1-enyl)quinazolin-4-ylamino)methyl)-N-(4-fluorophenyl)benzamide] were, in that order, more than 4680 nM, 712 nM and 537 nM.
For `CN(C)c1nc(NCc2ccc(C(=O)Nc3ccc(F)cc3)cc2)c2cc(/C=C/C(C)(C)C)ccc2n1` [Example 176], the IC50 is more than 4680 nM in the assay on SV40-Luc, 556 nM with β-catenin/Tcf-4 (setting [3]) and 425 nM with β-catenin/Tcf-4 (setting [4]).
For `Cc1ccc2c(NCc3ccc(NC(=O)Nc4ccc(Cl)cc4)cc3)nc(N(C)C)nc2c1` [Example 177, N-(4-chlorophenyl)-N′-[4-({[2-(dimethylamino)-7-methylquinazolin-4-yl]amino}methyl)phenyl]urea], the IC50 with SV40-Luc (Homo sapiens, SV5A8, 24 h) is more than 10800 nM; in the assay on β-catenin/Tcf-4 (setting [1]), more than 5420 nM; in the assay on β-catenin/Tcf-4 (setting [2]) it was more than 5420 nM.
Regarding `Cc1ccc2nc(N(C)C)nc(NCc3ccc(NC(=O)Nc4ccc(Cl)cc4)cc3)c2c1` [Example 178, N-(4-chlorophenyl)-N′-[4-({[2-(dimethylamino)-6-methylquinazolin-4-yl]amino}methyl)phenyl]urea], the IC50 was more than 2710 nM in the assay on SV40-Luc (Homo sapiens, SV5A8, 24 h); 245 nM in the assay on β-catenin/Tcf-4 (setting [1]); 266 nM in the assay with β-catenin/Tcf-4 (setting [2]).
For `Cc1ccc2c(NCc3ccc(NC(=O)Nc4ccc(Br)cc4)cc3)nc(N(C)C)nc2c1` [Example 179, N-(4-bromophenyl)-N′-[4-({[2-(dimethylamino)-7-methylquinazolin-4-yl]amino}methyl)phenyl]urea] the same measures were more than 4950 nM, 924 nM and 538 nM.
For `Cc1ccc2c(NCc3ccc(NC(=O)Nc4ccc(F)cc4)cc3)nc(N(C)C)nc2c1` [Example 180, N-[4-({[2-(dimethylamino)-7-methylquinazolin-4-yl]amino}methyl)phenyl]-N′-(4-fluorophenyl)urea] the same measures were more than 5610 nM, 2020 nM and 1460 nM.
The like results for `Cc1ccc2nc(N(C)C)nc(NCc3ccc(NC(=O)Nc4ccc(F)cc4)cc3)c2c1` [Example 181, N-[4-({[2-(dimethylamino)-6-methylquinazolin-4-yl]amino}methyl)phenyl]-N′-(4-fluorophenyl)urea] were, in that order, more than 2810 nM, 549 nM and 719 nM.
Consider `CN(C)c1nc(NCc2ccc(NC(=O)Nc3ccc(F)cc3)cc2)c2ccccc2n1` [Example 182, N-[4-({[2-(dimethylamino)quinazolin-4-yl]amino}methyl)phenyl]-N′-(4-fluorophenyl)urea], for which the IC50 was more than 11600 nM in the assay with SV40-Luc (Homo sapiens, SV5A8, 24 h); 4320 nM in the assay with β-catenin/Tcf-4 (setting [1]); 4280 nM in the assay on β-catenin/Tcf-4 (setting [2]).
The like results for `CNc1nc(NCc2ccc(NC(=O)c3ccc(F)c(F)c3)cc2)c2c(C)cccc2n1` [Example 189, 3,4-difluoro-N-[4-({[5-methyl-2-(methylamino)quinazolin-4-yl]amino}methyl)phenyl]benzamide] were, in that order, more than 4570 nM, 1140 nM and 1830 nM.
Regarding `Cc1ccc2c(NCc3ccc(NC(=O)c4ccc(Cl)cc4)cc3)nc(N(C)C)nc2c1` [Example 196, 4-chloro-N-[4-({[2-(dimethylamino)-7-methyl-quinazolin-4-yl]amino}methyl)phenyl]benzamide], the IC50 is more than 1400 nM in the assay with SV40-Luc (Homo sapiens, SV5A8, 24 h); 227 nM in the assay with β-catenin/Tcf-4 (setting [1]); 223 nM in the assay with β-catenin/Tcf-4 (setting [2]).
